How the values were obtained:
[1] = test system: NF-kB signaling through NIK in human embryonic kidney 293 cells; experiment: 293-NIK NF-kB-Luciferase reporter assay; format: cell-based; details: HEK293, 293 cells with tetracycline-inducible NIK, 1 ug/mL doxycycline, 24 hours, read-out: inhibitory value (IC50) for 293-NIK NF-kB-Luciferase activity
Summary of the method: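 HEK293 cells stably carrying tetracycline-inducible NIK plus NF-kB (ELAM-1 element) firefly luciferase and constitutive TK-Renilla viability reporter. Compounds (0.2% DMSO) incubated 24 h with 1 ug/mL doxycycline; Dual Glo luminescence read, IC50 from firefly signal.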

[2] = test system: REL-A (p65) nuclear translocation in HeLa cells; experiment: NIK RelA Translocation Assay (classical NF-kB signaling); format: cell-based; details: Homo sapiens; HeLa cells, compounds 4.5 hours, 10 ng/mL TNF-α 30 minutes; read-out: inhibitory value (IC50) for NIK RelA Translocation Assay
Protocol: (2) A second set of cell assay was used to define the selectivity of NIK inhibitors toward inhibition of classical vs. non-classical NF-kB signaling and rely on quantification of the nuclear translocation of p52 (NF-kB2) and REL-A (p65) using high content cellular imaging. For the p52 (non-classical NF-kB signaling) nuclear translocation assay, HeLa cells were treated with different concentrations of compounds (0.2% DMSO final) in medium containing 10% fetal bovine serum and then stimulated with 100 ng/mL of an anti-lymphotoxin beta receptor antibody (R&D Systems) for 5 hours. In the REL-A nuclear translocation assay, HeLa cells were incubated with compounds (0.2% DMSO final) for 4.5 hours in medium containing 10% fetal bovine serum before stimulating them with 10 ng/mL tumor necrosis factor (TNF)-α (R&D Systems) for 30 minutes. Cells were fixed with 4% paraformaldehyde, permeabilized by adding 0.1% Triton X-100 in phosphate buffered saline, and then incubated with either 2 ug/mL anti-p52 antibody (Millipore) or 400 ng/mL anti-REL-A (p65) antibody (Santa Cruz Biotechnology). Finally, the cells were incubated with an Alexa488-labeled secondary antibody (Invitrogen) and DRAQ5 DNA stain (Biostatus). Imaging was carried out using an Opera reader (Perkin Elmer) and data are analyzed with the aid of Acapella software (Perkin Elmer). The p52 or REL-A translocation into the nucleus was quantified by the ratio of the nuclear to cytoplasmic signal intensity. The concentration of inhibitor required for 50% inhibition (IC50 values) in these cell assays were derived from the plots of signal vs. inhibitor concentration. The compounds in listed in Table 1 have the corresponding inhibitory value (IC50 in micromolar) for NIK p52 Translocation Assay (values for compounds are presented in the same order as found in Table 1, and “na” means the data for this assay is to be determined): 0.326, 0.33, na, na, na, 0.218, 0.07, na, na, na, 0.129, 7.6, 0.077, 3.4, na, 0.518, na, 0.059, 0.514, 0.127, na, na, 0.010, na, na, 0.313, 0.275, na, 0.0727, na, na, na, na, na, na, 0.194, na, 6.4, 0.22, 0.346, na, na, na and na, na, na, na, na, na, 0.447, na, 0.089, 0.479, 0.489, 0.243, 0.747, 1, na, 1.9, 0.552, 2.1, na. na, na, na, na and na.
The compounds in listed in Table 1 has the corresponding inhibitory value (IC50 in micromolar) for NIK RelA Translocation Assay (values for compounds are presented in the same order as found in Table 1): 0.326, 0.33, na, na, na, 0.218, 0.07, na, na, na, na, na, 0.129, 7.6, 0.077, 3.4, na, 0.518, na, 0.059, 0.514, 0.127, na, na, 0.010, na, na, 0.313, 0.275, na, na, 0.0727, na, na, na, na, na, na, 0.194, na, 6.4, 0.22, 0.346, na, na, na, na, na, na, na, na, na, 0.447, na, 0.089, 0.479, 0.489, 0.243, 0.747, 1, na, 1.9, 0.552, 2.1, na, na, na, na, na and na.

[3] = test system: p52 (NF-kB2) nuclear translocation in HeLa cells; experiment: NIK p52 Translocation Assay (non-classical NF-kB signaling); format: cell-based; details: Homo sapiens; HeLa cells, 100 ng/mL anti-lymphotoxin beta receptor antibody, 5 hours; read-out: inhibitory value (IC50) for NIK p52 Translocation Assay
Summary of the method: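 HeLa cells in 10% FBS medium were exposed to compound (0.2% DMSO final) and stimulated with 100 ng/mL anti-lymphotoxin β receptor antibody for 5 h. Fixed cells were immunostained for p52 with DRAQ5 counterstain and imaged by high-content imaging. IC50 from nuclear/cytoplasmic p52 signal ratio vs concentration.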

[4] = test system: human embryonic kidney 293 cells; experiment: 293-NIK TK Renilla Luciferase reporter (general measure of cell viability); format: cell-based; details: HEK293, 293 cells, constitutive Renilla luciferase, 24 hours, read-out: inhibitory value (IC50) for 293-NIK TK Renilla Luciferase activity
Text: (1) The first assay was used to profile whether a test compound can inhibit the NF-kB signally through NIK inhibition without affecting cell viability. In this assay, human embryonic kidney 293 cells was stably transfected with a tetracycline-inducible NIK DNA construct containing a cytomegalovirus promoter plus two reporter DNA constructs. One reporter encoded firefly luciferase under the control of three repeats of an NF-kB response element from the ELAM-1 gene and reflects the level of NIK activity in the cells, whereas the other reporter constitutively expressed Renilla luciferase under the control of the herpes simplex virus thymidine kinase promoter and served as a general measure of cell viability. Cells were incubated with different concentrations of compounds (0.2% DMSO final) in medium containing 1 ug/mL doxycycline and 10% tet-system approved fetal bovine serum (Clontech) for 24 hours, after which the reporters' signals were detected using the Dual Glo luciferase detection system (Promega) according to the vendor's protocol. The compounds listed in Table 1 have the corresponding inhibitory value (IC50 in micromolar) for 293-NIK NF-kB-Luciferase activity (values for compounds are presented in the same order as found in Table 1): na, 0.059, na, na, na, 0.105, 0.027, na, 20, 1.2, na, 1.8, 0.0231, 0.879, 0.0361, 0.582, na, 0.142, na, 0.403, 0.059, 0.0331, na, na, 0.0573, 1.5, na, na, 0.0722, na, na, 0.589, 12.7, 3.7, 14.9, na, 0.707, 1, 0.0311, 0.332, 0.309, 0.0142, 0.051, 2.8, 0.129, na, na, 1.5, na, na, na, 1.3, 0.062, 20, 0.31, 0.104, 0.091, 0.037, 0.085, 0.279, na, 0.305, 0.064, 0.332, 0.133, 0.168, 0.217, 0.553, na and na.
The compounds in listed in Table 1 have the corresponding inhibitory value (IC50 in micromolar) for 293-NIK TK Renilla Luciferase activity: (values for compounds are presented in the same order as found in Table 1): 6.4, 3.6, 20, na, 1.6, 9.3, 18.5, na, na, 2.6, na, na, na, na, na, na, na, na, na, na, na, na, na, na, na, na, na, na, na, na, na, na, na, na, na, na, na, na, na, na, na, na, na, na, na, na, na, >20, na, na, na, 20, >20, 17, 1.3, 15.6, 0.967, 2.7, 11.2, 5.1, na, 20, 20, 20, 20, 20, 17.6, 20, na and na.

[5] = biological target: T1, nuclear factor-kappa B (NF-kB)-inducing kinase (NIK) (Homo sapiens, UniProt Q99558); experiment: NIK Enzyme Inhibition Assay (Transcreener ADP assay); format: biochemical; details: purified NIK 0.2-1 nM, 10 uM ATP, fluorescence polarization, Morrison's quadratic equation; read-out: inhibitory value (Ki) for NIK
T1 construct: made in house; host or cells: baculovirus-infected insect cells
T1 sequence (Q99558 whole entry): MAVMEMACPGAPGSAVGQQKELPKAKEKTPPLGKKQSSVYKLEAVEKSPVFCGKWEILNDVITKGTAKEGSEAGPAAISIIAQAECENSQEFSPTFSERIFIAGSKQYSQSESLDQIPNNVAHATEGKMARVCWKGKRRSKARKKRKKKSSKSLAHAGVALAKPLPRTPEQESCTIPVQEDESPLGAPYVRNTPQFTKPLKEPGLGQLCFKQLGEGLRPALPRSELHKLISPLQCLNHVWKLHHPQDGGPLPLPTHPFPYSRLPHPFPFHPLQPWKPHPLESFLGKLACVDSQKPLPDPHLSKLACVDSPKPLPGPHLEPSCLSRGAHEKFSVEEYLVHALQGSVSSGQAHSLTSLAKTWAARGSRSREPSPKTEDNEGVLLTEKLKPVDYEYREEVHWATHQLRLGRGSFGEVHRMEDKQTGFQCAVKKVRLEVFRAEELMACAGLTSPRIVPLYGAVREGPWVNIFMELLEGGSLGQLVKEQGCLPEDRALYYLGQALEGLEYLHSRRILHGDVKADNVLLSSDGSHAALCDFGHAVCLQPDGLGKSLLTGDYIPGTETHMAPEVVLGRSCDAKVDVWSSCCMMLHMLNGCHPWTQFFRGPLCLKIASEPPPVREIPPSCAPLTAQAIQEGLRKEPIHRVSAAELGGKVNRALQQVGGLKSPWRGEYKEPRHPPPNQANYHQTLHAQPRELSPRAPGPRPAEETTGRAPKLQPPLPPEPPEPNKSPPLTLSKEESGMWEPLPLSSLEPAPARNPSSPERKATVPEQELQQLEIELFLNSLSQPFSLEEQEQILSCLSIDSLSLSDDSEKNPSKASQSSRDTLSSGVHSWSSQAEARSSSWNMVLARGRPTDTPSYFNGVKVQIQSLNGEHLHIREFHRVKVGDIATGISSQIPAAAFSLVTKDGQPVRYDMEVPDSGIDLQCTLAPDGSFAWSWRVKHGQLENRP

Row | IC50 [2] | Ki [5] | Compound | IC50 [1] | IC50 [3] | IC50 [4]
1 | 70 nM | 0.28 nM | CC(O)(C#Cc1ccc2ncn(-c3ccnc(N)n3)c2c1)c1nccs1 (centres unmarked) [Example T1-7, 4-(1-(2-aminopyrimidin-4-yl)-1H-benzo[d]imidazol-6-yl)-2-(thiazol-2-yl)but-3-yn-2-ol] | 27 nM | 70 nM | 18500 nM
2 | 447 nM | 0.4 nM | Cc1nc2ccc(C#CC(C)(O)c3nccs3)cc2n1-c1ncnc(N)n1 (centres unmarked) [Example T1-53, 4-(1-(4-amino-1,3,5-triazin-2-yl)-2-methyl-1H-benzo[d]imidazol-6-yl)-2-(thiazol-2-yl)but-3-yn-2-ol] | 62 nM | 479 nM | > 20000 nM
3 | 89 nM | 0.2 nM | Cc1nn(-c2ccnc(N)n2)c2cc(C#C[C@@](C)(O)c3nccs3)c(F)cc12 [Example T1-55, (R)-4-(1-(2-aminopyrimidin-4-yl)-5-fluoro-3-methyl-1H-indazol-6-yl)-2-(thiazol-2-yl) but-3-yn-2-ol] | 310 nM | 243 nM | 1300 nM
4 | 479 nM | 1.6 nM | Cc1cnc(C(C)(O)C#Cc2ccc3c(C)nn(-c4ccnc(N)n4)c3c2)s1 (centres unmarked) [Example T1-56, 4-(1-(2-aminopyrimidin-4-yl)-3-methyl-1H-indazol-6-yl)-2-(5-methylthiazol-2-yl)but-3-yn-2-ol] | 104 nM | 747 nM | 15600 nM
5 | 489 nM | 2 nM | Cc1nc(C(C)(O)C#Cc2ccc3c(C)nn(-c4ccnc(N)n4)c3c2)no1 (centres unmarked) [Example T1-57, 4-(1-(2-aminopyrimidin-4-yl)-3-methyl-1H-indazol-6-yl)-2-(5-methyl-1,2,4-oxadiazol-3-yl)but-3-yn-2-ol] | 91 nM | 1000 nM | 967 nM
6 | 747 nM | 0.49 nM | Cc1cc(C(C)(O)C#Cc2ccc3c(C(=O)N(C)C)nn(-c4ccnc(N)n4)c3c2)no1 (centres unmarked) [Example T1-59, 1-(2-aminopyrimidin-4-yl)-6-(3-hydroxy-3-(5-methyl-isoxazol-3-yl)but-1-ynyl)-N,N-dimethyl-1H-indazole-3-carboxamide] | 85 nM | 1900 nM | 11200 nM
7 | 1000 nM | 2.2 nM | Cc1cc(C(C)(O)C#Cc2ccc3nc(C4CC4)n(-c4ncnc(N)n4)c3c2)no1 (centres unmarked) [Example T1-60, 4-(1-(4-amino-1,3,5-triazin-2-yl)-2-cyclopropyl-1H-benzo [d]imidazol-6-yl)-2-(5-methyl-isoxazol-3-yl)but-3-yn-2-ol] | 279 nM | 552 nM | 5100 nM

Reference: US8901313B2, “6,5-heterocyclic propargylic alcohol compounds and uses therefor” (Genentech, Inc., priority 2011, dated 2014)
